Laboratory results as given in PubChem BioAssay AID1963965 (Molecular Pharmacology Branch, DTP, NCI, 2024).

Test system: 996289-038-R-J1-PDC spheroid viability
Assay: Anticancer human tumor 996289-038-R-J1-PDC patient-derived colon adenocarcinoma cell line growth inhibition [PI3K]
Conditions: spheroids with HUVEC and MSC; for IC50: curve of first compound; for viability, T/C: stronger effect = lower value
Outline: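 Combination activity was assessed by viability in multicellular tumor spheroids carrying HUVEC and MSC components. Agents were tested with PI3K inhibitors from a Cmax-based top dose (or 10 microM) downward in half-log increments.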
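Note: spheroids exposed to compounds for seven days before viability read.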
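Throughout, for viability, T/C: luminescence used as a proxy for viable cell amount; percent viability relative to DMSO vehicle control as 100%.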

C[C@@H](NC(=O)c1ncnc(N)c1Cl)c1ncc(C(=O)Nc2cc(C(F)(F)F)c(Cl)cn2)s1 + Cc1nc(NC(=O)N2CCCC2C(N)=O)sc1-c1ccnc(C(C)(C)C(F)(F)F)c1
IC50 (second compound 0.0316 µM): > 10 µM
IC50 (second compound 0.1 µM): > 10 µM
IC50 (second compound 0.316 µM): > 10 µM
IC50 (second compound 1 µM): > 10 µM
IC50 (second compound 3.16 µM): > 10 µM
IC50 (second compound 10 µM): < 0.0316 µM
viability, T/C (second compound 0.0316 µM, first compound 0.0316 µM): 89.5%
viability, T/C (second compound 0.0316 µM, first compound 0.1 µM): 89.8%
viability, T/C (second compound 0.0316 µM, first compound 0.316 µM): 124%
viability, T/C (second compound 0.0316 µM, first compound 1 µM): 114%
viability, T/C (second compound 0.0316 µM, first compound 3.16 µM): 113%
viability, T/C (second compound 0.0316 µM, first compound 10 µM): 128%
viability, T/C (second compound 0.1 µM, first compound 0.0316 µM): 99.3%
viability, T/C (second compound 0.1 µM, first compound 0.1 µM): 100%
viability, T/C (second compound 0.1 µM, first compound 0.316 µM): 103%
viability, T/C (second compound 0.1 µM, first compound 1 µM): 104%
viability, T/C (second compound 0.1 µM, first compound 3.16 µM): 109%
viability, T/C (second compound 0.1 µM, first compound 10 µM): 105%
viability, T/C (second compound 0.316 µM, first compound 0.0316 µM): 80.5%
viability, T/C (second compound 0.316 µM, first compound 0.1 µM): 88.6%
viability, T/C (second compound 0.316 µM, first compound 0.316 µM): 90.8%
viability, T/C (second compound 0.316 µM, first compound 1 µM): 93.9%
viability, T/C (second compound 0.316 µM, first compound 3.16 µM): 109%
viability, T/C (second compound 0.316 µM, first compound 10 µM): 92.4%
viability, T/C (second compound 1 µM, first compound 0.0316 µM): 64.3%
viability, T/C (second compound 1 µM, first compound 0.1 µM): 72.8%
viability, T/C (second compound 1 µM, first compound 0.316 µM): 73.5%
viability, T/C (second compound 1 µM, first compound 1 µM): 81.1%
viability, T/C (second compound 1 µM, first compound 3.16 µM): 102%
viability, T/C (second compound 1 µM, first compound 10 µM): 70.8%
viability, T/C (second compound 3.16 µM, first compound 0.0316 µM): 62.1%
viability, T/C (second compound 3.16 µM, first compound 0.1 µM): 68.3%
viability, T/C (second compound 3.16 µM, first compound 0.316 µM): 60.3%
viability, T/C (second compound 3.16 µM, first compound 1 µM): 67.7%
viability, T/C (second compound 3.16 µM, first compound 3.16 µM): 68.7%
viability, T/C (second compound 3.16 µM, first compound 10 µM): 54.3%
viability, T/C (second compound 10 µM, first compound 0.0316 µM): 40.6%
viability, T/C (second compound 10 µM, first compound 0.1 µM): 47.1%
viability, T/C (second compound 10 µM, first compound 0.316 µM): 54.3%
viability, T/C (second compound 10 µM, first compound 1 µM): 44.3%
viability, T/C (second compound 10 µM, first compound 3.16 µM): 46.9%
viability, T/C (second compound 10 µM, first compound 10 µM): 39.9%
